Measurements taken from patent US6800727B2, “Peptides with increased + charge and hydrophobicity by substituting one or more amino acids of CA-MA peptide and pharmaceutical compositions containing thereof” (Chosun University, priority 2001, dated 2004).
Residues, ends and D or L forms follow the SMILES beside them.

Tests used:
[1] = system: Human red blood corpuscles; assay: Cytotoxicity: hemolysis capacity; assay type: cell-based; conditions: up to 12.5 μM
Description: Human red blood corpuscles were diluted with PBS (pH 7.0) to the concentration of 8%, and loaded into each wells of 96-well plate. Synthetic peptide of the present invention was half-fold diluted consecutively from 12.5 μM/well, followed by reacting with the red blood corpuscles for 1 hour at 37° C. After centrifugation, OD414 was measured to determine the amount of hemoglobin in the supernatant. At this time, CA-MA peptide was used as a comparative group and melittin was used as a positive control. In order to investigate the level of hemolysis, 1% triton X-100 was added, and then OD was measured. Hemolysis capacity of triton X-100 was regarded as 100%, with which hemolysis capacity of the synthetic peptide was compared and calculated according to the below <Mathematical Formula 1>.
% hemolysis=(OD A−OD B/OD C−OD B)×100

[2] = system: Bacillus subtilis (KCTC 1918); assay: MIC measurement, anti-bacterial activity; assay type: cell-based; conditions: summary of the strains of Table 1
Description: In order to measure the anti-bacterial activity of the peptide synthesized in Example 1, minimum inhibitory concentration (MIC) of the peptide was measured.
The present inventors used Bacillus subtilis (KCTC 1918) and Staphylococus epidermidis (KCTC 1917) as Gram-positive bacteria, and Pseudomonas aeruginosa (KCTC 1637) and Salmonella typhimurium (KCTC 1926) as Gram-negative bacteria for this experiment. All the bacteria used in this experiment were given by Korea Research Institute of Bioscience and Biotechnology (KRIBB). Each bacterial strain was cultured in LB medium(1% bacto-trypton, 0.5% bacto-yeast extract, 1% sodium chloride) to the mid-log phase, and diluted with 1% bacto-peptone medium at the concentration of 1×10^4 cells/100 μl. The diluted bacteria were loaded into micro-titrate plate. Antibiotic peptide synthesized in Example 1 and CA-MA peptide (as a comparative group) were half-fold diluted consecutively from 25 μM/well, and added into the plate for culture at 37° C. for 6 hours. Finally, the MIC of each strain was determined by observing OD620 with a micro-titrate plate reader.

[3] = system: Candida albicans (TIMM 1768); assay: Anti-fungal activity, MIC by MTT assay; assay type: cell-based; conditions: summary of the fungi of Table 2
Description: In order to measure the anti-fungal activity of the synthetic peptide of the present invention, the present inventors performed MTT assay with Candida albicans (TIMM 1768) and Tricosphoron beigelil (KCTC 7707). Particularly, PDB medium (20% potato infusion frum, 2% bacto dextrose) containing various fungi was loaded into the wells (100 μl/well) of 96-well plate. Antibiotic peptides of the present invention and CA-MA peptide (as a comparative group) were half-fold diluted consecutively, and added into the plate for further culturing. 10 μl of MTT solution ([…], 5 mg/ml) was added into each well followed by further culturing for 5-6 hours. Formazan produced by mitochondria enzymes of living cells was dissolved in 100 μl of 0.04 N HCl-isopropanol. Finally, OD570 was measured by using ELISA reader to determine the degree of MIC.

Bacillus subtilis [4] = assay: Visualization of anti-bacterial activity, colonies on LB plate; assay type: cell-based; conditions: 4×10^5 B. subtilis cells, 1 μM peptide, 2 hours at 37° C.; FIG. 1
Description: (§1) In order to visualize the antibiotic activity of the synthetic peptide of the present invention on the plate, Pseudomonas aeruginosa and Bacillus subtilis were inoculated in LB medium (1% bacto trypton, 0.5% yeast extract, 1% sodium chloride), and cultured to mid-log phase. Particularly, 4×10^5 P. aeruginosa cells were loaded into the medium, and 4 μM of synthetic peptide was added thereto. 4×10^5 B. subtilis cells were also loaded into the medium, and 1 μM of synthetic peptide was added thereto. After culturing for 2 hours at 37° C., the culture fluid was smeared on LB plate to visualize the cells. At this time, CA-MA peptide was used as a comparative group.

Pseudomonas aeruginosa [5] = assay: Visualization of anti-bacterial activity, colonies on plate; assay type: cell-based; conditions: 4×10^5 P. aeruginosa cells, 4 μM peptide, 2 hours at 37° C.; FIG. 2
Description: as §1

Bacillus subtilis [6] = assay: Anti-bacterial activity observation with SEM; assay type: cell-based; conditions: 0.78 μM, 30 minutes at 37° C.; FIG. 3
Description: (§2) Bacillus subtilis (Gram-positive) and Pseudomonas aeruginosa (Gram-negative) cells were cultured in LB medium (1% bacto trypton, 0.5% bacto yeast extract, 1% sodium chloride) to mid-log phase, and the cells were diluted with 10 mM of Na-phosphate buffer containing 100 mM of NaCl) at the concentration of 10^8 cells/ml. Synthetic peptide of the present invention and CA-MA peptide (as a comparative group) were added into the diluted cell culture medium (final conc. 0.78 μM in B. subtilis culture, 1.56 μM in P. aeruginosa culture), followed by further culturing for 30 minutes at 37° C. 0.2 M Na-phosphate buffer containing 5% glutaraldehyde was added into the medium, and the cells were fixed for 2 hours at 4° C. The cells were filtered with isopore filters (0.2 μm pore size, Millipore, Bedford, Mass., USA), and washed with 0.1 M Na-cacodylate buffer (pH 7.4). The filters were treated with 1% osmium tertoxide and dehydrated.

Pseudomonas aeruginosa [7] = assay: Anti-bacterial activity observation with SEM; assay type: cell-based; conditions: 1.56 μM, 30 minutes at 37° C.; FIG. 4
Description: as §2

Bacillus subtilis [8] = assay: Membrane dynamic condition, DPH fluorescence anisotropy; assay type: cell-based; conditions: 6.25 μM˜0.097 μM, 2 hours at 37° C.; FIG. 5A
Description: (§3) The present inventors performed the below experiment in order to investigate the dynamic condition of lipid membrane of bacteria cells treated with synthetic peptide of the present invention. Particularly, B. subtilis (Gram-positive) and P. aeruginosa (Gram-negative) were cultured to mid-log phase in LB medium (1% bacto trypton, 0.5% bacto yeast extract, 1% sodium chloride). And the antibiotic peptide of the present invention and CA-MA peptide (as a comparative group) were treated (6.25 μM˜0.097 μM, half-fold diluted) thereto. Each strains were further cultured for 2 hours at 37° C. After fixing with 0.25% formaldehyde for 1 hour at room temperature, cultured cells were washed with PBS (pH 7.4), and then frozen in liquid nitrogen. For the fluorescent labeling, PBS (pH 7.4) was added until OD450 reached to 0.25, and DPH (1,6-diphenyl-1,3,5-hexatriene) dissolved in tetrahydrofuran was added (final conc. […]), followed by further culturing for 45 minutes at 37° C. Steady-state fluorescence anisotropy was determined by measuring the strength of fluorescence with spectrofluorometer (HITACHI F-3010, Tokyo, Japan) at 330 nm and 450 nm.

Pseudomonas aeruginosa [9] = assay: as above; assay type: cell-based; conditions: 6.25 μM˜0.097 μM, 2 hours at 37° C.; FIG. 5B
Description: as §3

[10] = system: Calu-6 (a human lung cancer cell line); assay: Anticancer activity, MTT assay; assay type: cell-based; conditions: for anti-cancer activity: Calu-6
Description: (§4) In order to measure the anticancer activity of the synthetic peptide of the present invention, the present inventors performed MTT assay with Calu-6 (a human lung cancer cell line), SNU 601 (a human stomach cancer cell line) and Jurkat (a T-cell lymphoma cell line) cells. Firstly, 90 μl of each cell line (2×10^5 cells/ml) was loaded into each well of 96-well plate. At this time, only medium contained wells were used as a control. After shaking well, the cells were cultured in CO2 incubator for 3 days. Formazan produced by mitochondria enzymes of living cells was dissolved in 100 μl of 0.04 N HCl-isopropanol, and finally, OD540 was measured by using ELISA reader. The anti-cancer activity of antibiotic peptide of the present invention was represented by a percentage (OD of synthetic peptide treated well/OD of control×100).

[11] = system: Jurkat (a T-cell lymphoma cell line); assay: Anticancer activity, MTT assay; assay type: cell-based
Description: as §4

[12] = system: SNU 601 (a human stomach cancer cell line); assay: Anticancer activity, MTT assay; assay type: cell-based; conditions: for anti-cancer activity: SNU 601
Description: as §4

[13] = Acute toxicity test in rat via non-oral administration; assay type: in vivo; conditions: SD, in vivo, 1 g/kg/15 ml, intravenous, read-out: level up to which no toxic change is caused
Description: (§5) The following experiments were performed to see if the synthetic peptide of the present invention has acute toxicity in rat.
(§6) 6-week old SPF SD line rats were used in the tests for acute toxicity. Synthetic peptide of the present invention represented by the SEQ. ID. NO: 2 was suspended in 0.5% methyl cellulose solution and intravenous injected once to 2 rats per group at the dosage of 1 g/kg/15 ml. Death, clinical symptoms, and weight change in rats were observed, hematological tests and biochemical tests of blood were performed, and any abnormal signs in the gastrointestinal organs of chest and abdomen were checked with eyes during autopsy.

SPF SD line rats = assay: as above; assay type: in vivo; conditions: single intravenous injection, 1 g/kg/15 ml in 0.5% methyl cellulose
Description: as §5, §6

CC[C@H](C)[C@H](NC(=O)CNC(=O)[C@@H](NC(=O)[C@H](CCCCN)NC(=O)[C@H](CCCCN)NC(=O)[C@H](Cc1ccccc1)NC(=O)[C@H](CC(C)C)NC(=O)[C@H](CCCCN)NC(=O)[C@H](Cc1c[nH]c2ccccc12)NC(=O)[C@@H](N)CCCCN)[C@@H](C)CC)C(=O)NCC(=O)N[C@@H](CCCCN)C(=O)N[C@@H](Cc1ccccc1)C(=O)N[C@@H](CC(C)C)C(=O)N[C@@H](Cc1c[nH]cn1)C(=O)N[C@@H](CO)C(=O)N[C@@H](C)C(=O)N[C@@H](CCCCN)C(=O)N[C@@H](CCCCN)C(=O)N[C@@H](Cc1ccccc1)C(=O)O [CA-MA] (H-KWKLFKKIGIGKFLHSAKKF-OH)
cytotoxicity (hemolysis), in words [1]: did not show any cytotoxicity

CC[C@H](C)[C@H](NC(=O)CN)C(=O)NCC(=O)N[C@@H](C)C(=O)N[C@H](C(=O)N[C@@H](CC(C)C)C(=O)N[C@@H](CCCCN)C(=O)N[C@H](C(=O)N[C@@H](CC(C)C)C(=O)N[C@H](C(=O)N[C@H](C(=O)NCC(=O)N[C@@H](CC(C)C)C(=O)N1CCC[C@H]1C(=O)N[C@@H](C)C(=O)N[C@@H](CC(C)C)C(=O)N[C@H](C(=O)N[C@@H](CO)C(=O)N[C@@H](Cc1c[nH]c2ccccc12)C(=O)N[C@H](C(=O)N[C@@H](CCCCN)C(=O)N[C@@H](CCCNC(=N)N)C(=O)N[C@@H](CCCCN)C(=O)N[C@@H](CCCNC(=N)N)C(=O)N[C@@H](CCC(N)=O)C(=O)N[C@@H](CCC(N)=O)C(N)=O)[C@@H](C)CC)[C@@H](C)CC)[C@@H](C)O)[C@@H](C)O)C(C)C)C(C)C [Melittin, melittin]
cytotoxicity (hemolysis), in words [1]: high cytotoxicity

CC(C)C[C@H](NC(=O)[C@H](CCCCN)NC(=O)[C@H](CCCCN)NC(=O)[C@H](CC(C)C)NC(=O)[C@H](CC(C)C)NC(=O)[C@H](CCCCN)NC(=O)[C@H](CCCCN)NC(=O)[C@H](CC(C)C)NC(=O)[C@H](CC(C)C)NC(=O)[C@@H]1CCCN1C(=O)[C@@H]1CCCN1C(=O)[C@@H]1CCCN1C(=O)[C@H](CCCCN)NC(=O)[C@H](CCCCN)NC(=O)[C@H](CC(C)C)NC(=O)[C@H](CC(C)C)NC(=O)[C@H](CCCCN)NC(=O)[C@H](CCCCN)NC(=O)[C@H](Cc1c[nH]c2ccccc12)NC(=O)[C@@H](N)CCCCN)C(=O)O [Synthetic peptide (SEQ ID. NO: 2)] (H-KWKKLLKKPPPLLKKLLKKL-OH; N-terminus and C-terminus assumed)
antibiotic activity relative to CA-MA peptide [2]: around 4 times
anti-fungal activity relative to CA-MA peptide [3]: about 2 times
cytotoxicity (hemolysis), in words [1]: did not show any cytotoxicity
colonies on LB plate (Bacillus subtilis [4]): no colony was found
anti-bacterial activity on agar plate, compared to CA-MA (Pseudomonas aeruginosa [5]): remarkable anti-bacterial activity
destroyed cells observed with SEM, versus control and CA-MA peptide (Bacillus subtilis [6]): much more destroyed cells
destroyed cells observed with SEM, versus control and CA-MA peptide (Pseudomonas aeruginosa [7]): much more destroyed cells
DPH-labeled fluorescent materials intercalated at lower position of membrane, compared to CA-MA peptide (Bacillus subtilis [8]): 15-20%
DPH-labeled fluorescent materials intercalated at lower position of membrane, compared to CA-MA peptide (Pseudomonas aeruginosa [9]): 15-20%
anti-cancer activity compared with CA-MA peptide ([10]; Calu-6, 3 days, FIG. 6A): higher than that of CA-MA peptide
anti-cancer activity ([10]; over 10 μM concentration): complete restrain of cancer cell growth
anti-cancer activity ([10]; to the concentration of 1 μM): did not showed anti-cancer activity
anti-cancer activity compared with CA-MA peptide ([11]; 3 days, FIG. 6B): higher than that of CA-MA peptide
anti-cancer activity ([11]; over 10 μM concentration): complete restrain of cancer cell growth
anti-cancer activity ([11]; to the concentration of 1 μM): did not showed anti-cancer activity
anti-cancer activity compared with CA-MA peptide ([12]; SNU 601, 3 days, FIG. 6C): higher than that of CA-MA peptide
anti-cancer activity ([12]; over 10 μM concentration): complete restrain of cancer cell growth
anti-cancer activity ([12]; to the concentration of 1 μM): did not showed anti-cancer activity
NOAEL [13]: ≥ 10 mg/kg
clinical symptoms, weight change, death (SPF SD line rats): did not cause any specific clinical symptoms, weight change, or death
hematological tests, biochemical tests of blood, autopsy (SPF SD line rats): No change was observed
